Columns and labels:
Type in all cases: cell-based, human
Conditions in all cases: 50 ng/ml
CD4+ immune cells = assay: Immune Cell Stimulation Assay Method (CD69 expression, flow cytometry), CD4+
Experimental: (§1) Each immunostimulation assay uses a Becton Dickinson FACScan flow cytometer to quantify immune cell activity. The specific protocol for measuring such activity utilizes freshly drawn human blood collected in sodium heparin to 200 μL. Echinacea extract is added in a desired concentration after being mixed with 50 μL of phosphate buffer. The blood and Echinacea mixture is vortexed and incubated at 37° C. for 5 hours to allow adequate time for immune cell stimulation.
(§2) Positive controls consist of PMA (50 ng/ml), PHA ([…]), or CD2/CD2R (5 μL/250 μL) and negative controls consist of DMSO (2% in RPMI), RPMI, and cyclosporin A (10 μg/ml). For staining, 20 μL of reagent cocktail (CD4FITC/CD69PE/CD3PerCP (expressed on the helper/inducer T-lymphocyte subset and is the primary receptor for HIV); CD8FITC/CD69PE/CD3PerCP (expressed on the human suppressor/cytotoxic T-lymphocytes and on a subset of natural killer lymphocytes); CD19FITC/CD69PE/CD45PerCP (expressed on B-lymphocytes); CD56FITC/CD69PE/CD45PerCP (expressed on NK lymphocytes), for examples) are used.
Following the cell stimulation period described above, solutions of fractions and constituents are compared quantitatively with the above-recited controls. Next 50 μL of the stimulated blood samples are added to each of the tubes containing the reagent cocktail, vortexed and incubated at room temperature for 30 min. in the dark. Then 450 μL of 1× FACS lysing solution is added to each tube which is vortexed gently and incubated in the dark at room temp. for 20 min. The prepared samples are analyzed in the flow cytometer. CD69 (CD stands for cluster determinant) is the first […] expressed by any of these cells following stimulation and is produced on the surface of T-, B- and NK-lymphocytes. […] Individual cell types are quantitated using appropriate stains and gating as known by those skilled in the art.

CD8+ immune cells = assay: Immune Cell Stimulation Assay Method (CD69 expression, flow cytometry), CD8+
Experimental: as §1, §2
(§3) Following the cell stimulation period described above, solutions of fractions and constituents are compared quantitatively with the above-recited controls. […] The prepared samples are analyzed in the flow cytometer. […] Individual cell types are quantitated using appropriate stains and gating as known by those skilled in the art.

CD19+ cells = assay: Immune Cell Stimulation Assay Method (CD69 expression, flow cytometry), CD19+
Experimental: as §1, §2, §3

CD56+ cells = assay: Immune Cell Stimulation Assay Method (CD69 expression, flow cytometry), CD56+
Experimental: as §1, §2, §3

CCCCCCCCCCCCCC(=O)O[C@@H]1[C@@H](C)[C@@]2(O)[C@@H](C=C(CO)C[C@]3(O)C(=O)C(C)=C[C@@H]23)[C@@H]2C(C)(C)[C@]12OC(C)=O [PMA]
CD4+ stimulation, positive control (CD4+ immune cells; Table 2): 99.16% | CD4+ stimulation, positive control (CD4+ immune cells; Table 3): 99.16% | CD4+ stimulation, positive control (CD4+ immune cells; Table 4): 99.20% | CD4+ stimulation, positive control (CD4+ immune cells; Table 7): 99.42% | CD4+ stimulation, positive control (CD4+ immune cells; Table 8): 98.770% | CD8+ stimulation, positive control (CD8+ immune cells; Table 7): 99.04% | CD8+ stimulation, positive control (CD8+ immune cells; Table 8): 98.320% | CD19+ stimulation, positive control (CD19+ cells; Table 7): 97.68% | CD19+ stimulation, positive control (CD19+ cells; Table 8): 98.820% | CD56+ stimulation, positive control (CD56+ cells; Table 7): 94.14% | CD56+ stimulation, positive control (CD56+ cells; Table 8): 94.940%
